Tests used:
[1] = system: A549 cells; assay: Tail vein xenograft in SCID mice, A549 cells; type: in vivo, human
Excerpt: Fig. 3 NatD promotes lung cancer cell invasion in a xenograft mouse model. a (left) Representative bioluminescent (BLI) images acquired at the indicated time points after intravenous injection of SCID mice with Scr or NatD-KD A549 cells. NatD-KD2 cells were used because the KD2 shRNA produced a better knockdown effect. Pseudocolor heat-maps indicate intensity of bioluminescence from low (blue) to high (red) (D, day). (right) Normalized BLI signals of lung tumors of corresponding mice (n = 5 for each group) recorded at the indicated time points. Results are shown as mean ± s.d. from five mice. […] (right) Quantification of total lung bioluminescence from SCID mice as in (b) (n = 5 for each group). […]
All animal care and handling procedures were performed in accordance with the National Institutes of Health Guide for the Care and Use of Laboratory Animals, and were approved by the Institutional Review Board of Nanjing University (Nanjing, China). […] Lung nodules and progression were monitored and quantified using the bioluminescence system (Caliper IVIS Lumina XR) or by counting under a dissecting microscope. […] Mice were killed at day 28 or day 30 to collect lungs, and lung nodules in serial sections were quantified microscopically. […] Lung nodules and progression were monitored and quantified using the bioluminescence system (Caliper IVIS Lumina XR). […]

[2] = system: H1299 cells; assay: TGF-β1-induced EMT experiment (morphology), H1299 cells; type: cell-based, human; details: TGF-β1-treated NatD knockdown H1299 cells
Excerpt: Fig. 4 Silencing NatD suppresses cancer cell EMT by downregulating Slug. a Representative phase contrast images of Scr and NatD-KD H1299 cells treated with TGF-β1. Data are representative of three independent experiments. Scale bar, 100 μm. b Quantitative real-time PCR analysis of mRNA levels of indicated key EMT-related genes in Scr and NatD-KD H1299 cells normalized to GAPDH in the absence or presence of TGF-β1. Results are shown as mean ± s.d. of three independent experiments. Two-tailed Student’s t-test was used. **P < 0.01 or *P < 0.05 compared with the indicated control. c Western blot analysis of indicated protein levels in Scr and NatD-KD H1299 cells in the absence or presence of TGF-β1. GAPDH served as a loading control. Data are representative of three independent experiments. d Immunofluorescence analysis of Scr and NatD-KD H1299 cells in the absence or presence of TGF-β1 stained for E-cadherin and N-cadherin. […] (bottom panels) Cells were counted in at least four random microscope fields (×100 magnification) for the corresponding assays; migration and invasion are expressed as a percentage of control. […] Two-tailed Student’s t-test was used. **P < 0.01 compared with the indicated control. g Quantitative real-time PCR analysis of the mRNA levels of NatD and indicated key EMT-related genes (normalized to GAPDH) in Scr cells, NatD-KD cells, and NatD-KD + Slug cells. […]

Substance: NatD-KD2: Human NatD shRNA KD2: 5′-GGTTGAATGTCTCCATTGA-3′, lentiviral (shRNA lentiviral)
- lung cancer growth signals (photon radiance) ([1]; BLI days 1-28, n = 5, vs Scr): significantly reduced
- number of tumor nodules ([1]; day 28, n = 5, relative to Scr): decreased threefold
- morphology on TGF-β1 treatment, NatD knockdown cells [2]: mostly retained their rounded epithelial morphology
